Source: patent US20190078143A1, “METHOD FOR TREATING NEURODEVELOPMENTAL DISORDERS” (New York University, priority 2017, published 2019)
Entries after “also recorded” stand apart in the source; their conditions may differ.

How the values were obtained:
[1] = test system: cortical patches (SATB2) in primary somatosensory cortex; test: Cortical patches by SATB2 immunohistochemistry in adult MIA offspring brains; format: in vivo, mouse; details: offspring of poly(I:C)-injected mothers pre-treated with vancomycin
Experimental: (§1) Mice were mated overnight and females were checked daily for the presence of seminal plugs, noted as embryonic day 0.5. On E12.5, pregnant female mice were weighed and injected with a single dose (20 mg/kg; i.p.) of poly(I:C) (Sigma Aldrich) or PBS vehicle. Each dam was returned to its cage and left undisturbed until the birth of its litter. All pups remained with the mother until weaning on postnatal day 21-28 (P21-P28), at which time mice were group housed at a maximum of 5 per cage with same-sex littermates.
For co-housing experiments, age-matched SFB-absent mice (from Jackson Laboratory) were co-housed with SFB-present mice (from Taconic Biosciences) in sterilized cages for two weeks at a ratio of 2:3, with unrestricted access to food and water. For SFB-gavaging experiments, four fecal pellets of SFB mono-colonized mice (provided by Dan Littman) were dissolved in 20 ml sterile PBS and filtered through a 100 μm cell strainer. […]
Adult male mice were perfused and fixed with 4% paraformaldehyde in PBS for overnight at 4° C. […] The cortical malformation images were analyzed using Image J software. […]
Cortical patches were identified as cortical regions devoid of SATB2 expression. The size of the cortical patches in the S1 was calculated using Zen software (Carl Zeiss). […] SATB2 positive cells were quantified manually.

[2] = test system: segmented filamentous bacteria (SFB); test: 16S rRNA qPCR of SFB levels in mouse fecal samples; format: in vivo; details: B6 mice before/after vancomycin treatment
Experimental: (§2) For co-housing experiments, age-matched SFB-absent mice (from Jackson Laboratory) were co-housed with SFB-present mice (from Taconic Biosciences) in sterilized cages for two weeks at a ratio of 2:3, with unrestricted access to food and water. For SFB-gavaging experiments, four fecal pellets of SFB mono-colonized mice (provided by Dan Littman) were dissolved in 20 ml sterile PBS and filtered through a 100 μm cell strainer. 200 μl of fecal suspensions were gavaged via oral route to 4 week-old female Jackson mice. Control mice were gavaged with PBS. The SFB colonization was tested on day 7 following co-housing or SFB-gavaging. For ablation of intestinal bacteria, Taconic-derived female mice were orally gavaged with vancomycin hydrochloride (Fisher) (2.5 mg/kg) every two days, starting 7 days prior to breeding. Mouse fecal pellets were collected and stored at −80° C. before and after vancomycin treatments.
Bacterial genomic DNA was isolated from the fecal pellets of mice with phenol-chloroform extraction. qPCR was performed to quantify relative abundance of SFB, human commensal bacteria or total bacteria using group specific 16S rDNA primers (Table 3, FIG. 16). Undetected qPCR values from non-colonized samples were replaced with a Ct value of 40 for the purpose of comparison.

[3] = test system: segmented filamentous bacteria (SFB); details: commensal bacteria in laboratory mice, general statement; cited from earlier work
IL-17a = test: Maternal plasma IL-17a ELISA after poly(I:C) at E12.5; format: in vivo, mouse; details: poly(I:C)-injected pregnant dams, 48 hrs after poly(I:C) at E12.5, compared to control group
Experimental: as §1
as §2, with “For ablation of intestinal bacteria, Taconic-derived female mice were orally gavaged with vancomycin hydrochloride (Fisher) (2.5 mg/kg) every two days, starting 7 days prior to breeding. Mouse fecal pellets were collected and stored at −80° C. before and after vancomycin treatments.” left out
IL-17a, TNF-α, IFN-β, IL-1β and IL-23 levels were measured according to the manufacturer's protocol (BioLegend). IL-6 and IFN-γ levels were measured according to the manufacturer's protocol (eBioscience).

MIA offspring = test: Behavioral assays (USV, marble burying, open field, three-chamber sociability) in offspring of poly(I:C)-injected dams; format: in vivo, mouse; details: poly(I:C)-injected mothers pre-treated with vancomycin, oral gavage every two days from 7 days before breeding
Experimental: as §1, with “littermates. […]” for “littermates.”
On P9, both male and female offspring mice were removed from the nest and habituated to the testing room for 30 min. […] Ultrasonic vocalizations (USVs) were detected for 3 min using an UltraSoundGateCM16/CMPA microphone (AviSoft) in the sound attenuation chamber under stable temperature and light control, and recorded with SAS Prolab software (AviSoft). USVs were measured between 33-125 kHz using Ultravox software (Noldus Information Technology, USA). Due to the unreliability of automated USV scoring, all pup USV calls were counted manually and plotted on the y-axis. […]
8-12-week-old male mice were tested for social behavior using the three-chamber social approach paradigm. […] Experimental mice were given 10 min to explore both chambers and measured for approach behavior as interaction time (i.e. sniffing, approach) with targets in each chamber (within 2 cm). […]

[4] = test system: Th17 cells in the small intestine; test: Flow cytometry of ileal CD4+ T cells for IL-17a and RORγt in poly(I:C)-treated dams; format: in vivo, mouse; details: poly(I:C)-injected pregnant dams, E14.5, compared to control group
Experimental: as §2
For mononuclear cell isolations, both mesenteric fat tissues and Peyer's patches were carefully removed from intestinal tissues. […]
Mononuclear cells were incubated with or without 50 ng/ml phorbol myristate acetate (PMA) (Sigma) and 500 ng/ml ionomycin (Sigma) in the presence of GolgiStop (BD) in complete T cell media at 37° C. for 5 h. […] All data were re-analyzed using FlowJo (Tree Star).

CN[C@H](CC(C)C)C(=O)N[C@H]1C(=O)N[C@@H](CC(N)=O)C(=O)N[C@H]2C(=O)N[C@H]3C(=O)N[C@H](C(=O)N[C@H](C(=O)O)c4cc(O)cc(O)c4-c4cc3ccc4O)[C@H](O)c3ccc(c(Cl)c3)Oc3cc2cc(c3O[C@@H]2O[C@H](CO)[C@@H](O)[C@H](O)[C@H]2O[C@H]2C[C@](C)(N)[C@H](O)[C@H](C)O2)Oc2ccc(cc2Cl)[C@H]1O [vancomycin]
cortical patches in adult offspring [1]: failed to develop cortical patches | intestinal colonization by SFB (qPCR of fecal samples) [2]: severely reduced | susceptibility of SFB to vancomycin [3]: susceptible | levels of IL-17a in the maternal plasma (IL-17a): reduction in the levels of IL-17a | development of behavioral abnormalities in MIA offspring (USV, marble burying, open field center time, % interaction) (MIA offspring): prevented induction of behavioral abnormalities; also recorded: prevented development of all four behavioral abnormalities | proportion of Th17 cells in the small intestine [4]: decrease in the proportion of Th17 cells
